# From US9233171B2, “Method of treatment of tumors that are resistant to EGFR antibody therapies by EGFR antibody cytotoxic agent conjugate” (ImmunoGen, Inc., priority 2011, dated 2016)
# Like-named read-outs stand apart in the source and are kept apart here.
# Columns and labels:
# [1] = system: H2228 cells; details: H2228, Koivunen et al. 2008; cited from earlier work
# [2] = system: H2228 cells; assay: cytotoxic activity, H2228; format: cell-based; details: Homo sapiens, NCI-H2228
# Protocol: (§1) The cytotoxic assay was performed as follows.
# EML4-ALK gene translocation leads to a constitutive activation of ALK kinase and has been identified as a driver mutation in ˜5% of NSCLC adenocarcinoma (reviewed in Castro-Carpeno J. et al., Clin Transl Oncol. 13:774-779 (2011)). […] Unfortunately, ˜40% of EML4-ALK+ tumors are resistant to crizotinib. Additionally, tumors that are sensitive to crizotinib can rapidly develop resistance to the drug (Castro-Carpeno J. et al., Clin Transl Oncol. 13:774-779 (2011)).
# [3] = system: Parental HCC827 (Aichi) cells; assay: in vitro cytotoxicity assay, parental HCC827 (Aichi); format: cell-based
# Protocol: as §1
# (§2) The HCC827 ER cell line contains high MET gene copy number and the HCC827 EPR cell line carries T790M EGFR mutation (Suda K. et al. Clin Cancer Res 16: 5489 (2010)). These cell lines reflect the two major mechanisms of resistance against EGFR tyrosine kinase inhibitors (Sequist L. et al. Sci Transl Med 3: 75ra26 (2011)).
# [4] = system: HCC827 parental cell line; assay: Western blot after 16 hour erlotinib treatment, HCC827 parental; format: cell-based; details: erlotinib 16 hours
# [5] = system: HCC827-ER-E4 cell line; assay: Western blot after 16 hour erlotinib treatment, HCC827-ER-E4; format: cell-based; details: HCC827-ER-E4, erlotinib 16 hours
# [6] = system: HCC827-ER cell line; assay: in vitro cytotoxicity assay, HCC827-ER
# [7] = system: HCC827-ER-E4 cell line; assay: in vitro cytotoxicity assay, HCC827-ER-E4
# [8] = system: H226 cell line; details: H226, Yauch et al. 2005; cited from earlier work
# [9] = target: EGFR on parental HCC827 (Aichi) NSCLC cells (exon 19 deletion EGFR mutation) (UniProt P00533 25-1210); assay: cell-based or functional assay
# [10] = system: NCI-H1975 cell line; assay: in vitro cytotoxic assay (WST-8), NCI-H1975; format: cell-based
# Protocol: NCI-H1975 cell line is a NSCLC adenocarcinoma cell line that carries both sensitizing (L858R) and resistant (T790M) EGFR mutations (Cosmic database, Wellcome Trust Sanger Institute), thus it closely mimics the EGFR kinase inhibitor resistant tumors found in the clinical setting.
# as §1
# [11] = system: H226 cell line; assay: in vitro cytotoxic assay, H226; format: cell-based
# Protocol: as §1
# NSCLC cell lines with mesenchymal histology are generally more resistant to gefitinib than those with epithelial histology (Yauch R L. et al. Clin Cancer Res 11: 8686 (2005)). […] H226 cell line is a squamous cell carcinoma with mesenchymal histology.
# [12] = system: Detroit 562; assay: in vitro cytotoxicity assay, Detroit 562; format: cell-based; details: Detroit562
# [13] = system: HCC827 ER (Aichi) cells; assay: in vitro cytotoxicity assay, HCC827 ER (Aichi); format: cell-based
# Protocol: as §1, §2
# [14] = system: HCC827 EPR (Aichi) cells; assay: in vitro cytotoxicity assay, HCC827 EPR (Aichi); format: cell-based
# Protocol: as §1, §2
# [15] = system: HCC827-ER cell line
# [16] = system: HCC827-ER-E4 cell line
# [17] = system: HCC827 cell line; assay: in vitro cytotoxic assay, HCC827 in absence or presence of HGF
molecule,measurement,setting,value
COc1cc(N2CCC(N3CCN(C)CC3)CC2)ccc1Nc1ncc(Cl)c(Nc2ccccc2S(=O)(=O)C(C)C)n1 [TAE684],resistance of cell line,[1],resistant
C[C@@H](Oc1cc(-c2cnn(C3CCNCC3)c2)cnc1N)c1c(Cl)ccc(F)c1Cl [crizotinib],EC50,"[2]; H2228, EML4-ALK translocation, read-out: EC50",3.82 µM
C#Cc1cccc(Nc2ncnc3cc(OCCOC)c(OCCOC)cc23)c1 [erlotinib],sensitivity,[3],highly sensitive
same,EC50,[2],26.1 µM
same,AKT level,[4],reduced
same,AKT phosphorylation,[4],inhibited
same,EGFR phosphorylation,[4],completely inhibited
same,ERK1/2 phosphorylation,[4],inhibited
same,AKT level,[5],not changed
same,EGFR phosphorylation,[5],completely inhibited
same,ERK1/2 phosphorylation,[5],less impact
same,phospho AKT (pAKT) level,[5],little change
same,cytotoxic effect,[6],highly resistant
same,cytotoxic effect,[7],maintained erlotinib resistance
COc1cc2ncnc(Nc3ccc(F)c(Cl)c3)c2cc1OCCCN1CCOCC1 [gefitinib],resistance of cell line,[8],resistant
"huEGFR-7R antibody (antibody, V domains shown) VH: QVQLVQSGAEVAKPGASVKLSCKASGYTFTSYWMQWVKQRPGQGLECIGTIYPGDGDTTYTQKFQGKATLTADKSSSTAYMQLSSLRSEDSAVYYCARYDAPGYAMDYWGQGTLVTVSS VL: DIQMTQSPSSLSASVGDRVTITCRASQDINNYLAWYQHKPGKGPKLLIHYTSTLHPGIPSRFSGSGSGRDYSFSISSLEPEDIATYYCLQYDNLLYTFGQGTKLEIKR","EC50, in vitro cytotoxicity (WST-8 cell viability) on parental HCC827 (Aichi) cells",[9],0.000426 µM
same,cytotoxic effect,[10],did not have any effect
same,effect on tumor cell growth,[11],neither the huEGFR-7R antibody nor cetuximab had effect
same,effect on tumor cell growth,[12],had no effect
same,sensitivity,[3],highly sensitive
same,sensitivity / resistance,[13],highly resistant
same,sensitivity / resistance,[14],highly resistant
same,cytotoxic effect,[15],little effect
same,cytotoxic effect,[16],little effect
same,cell growth inhibition,[17]; HCC827 + 50 ng/mL HGF,further reduced
same,cell growth inhibition,"[17]; HCC827, absence of HGF",marginal activities
